From patent publication US12054562B2, “Cell-permeable inhibitory agent and methods of use thereof in treatment of cognitive and mood disorders” (priority 2015, dated 2024)

Assays:
[1] = target: T1, α2 subunit containing GABAA receptors (Mus musculus, UniProt P26048); assay: Co-IP and WB, gephyrin and α2 subunit containing GABAA receptors; assay type: binding; conditions: immunoprecipitates from Example 1, hippocampal tissue
T1 construct: α1 and α2 subunit containing GABAA receptors in the hippocampal tissue; from tissue; host or cells: hippocampus of adult mice
T1 sequence (P26048 29-451): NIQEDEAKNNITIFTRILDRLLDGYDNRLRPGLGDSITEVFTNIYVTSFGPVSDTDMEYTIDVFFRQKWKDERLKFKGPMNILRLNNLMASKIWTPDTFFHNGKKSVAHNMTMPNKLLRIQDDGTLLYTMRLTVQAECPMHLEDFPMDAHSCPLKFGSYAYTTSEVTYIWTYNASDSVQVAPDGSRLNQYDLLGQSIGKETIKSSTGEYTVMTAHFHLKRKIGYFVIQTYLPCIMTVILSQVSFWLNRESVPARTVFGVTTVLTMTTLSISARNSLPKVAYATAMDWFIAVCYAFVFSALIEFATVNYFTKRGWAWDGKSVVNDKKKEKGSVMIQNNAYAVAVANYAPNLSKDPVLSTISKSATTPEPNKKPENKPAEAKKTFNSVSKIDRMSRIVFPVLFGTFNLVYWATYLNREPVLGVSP

[2] = tested on: α5GABAA receptor cell-surface expression; assay: Receptor cell-surface ELISA assay in cultured hippocampal neurons; assay type: cell-based, mouse; conditions: neurons treated with peptide without exposure to etomidate
[3] = target: T2, α1 subunit containing GABAA receptors (Mus musculus, UniProt P62812); assay: Co-IP and WB, gephyrin and α1 subunit containing GABAA receptors; assay type: binding; conditions: immunoprecipitates from Example 1, hippocampal tissue
T2 construct: α1 and α2 subunit containing GABAA receptors in the hippocampal tissue; from tissue; host or cells: hippocampus of adult mice
T2 sequence (P62812 28-455): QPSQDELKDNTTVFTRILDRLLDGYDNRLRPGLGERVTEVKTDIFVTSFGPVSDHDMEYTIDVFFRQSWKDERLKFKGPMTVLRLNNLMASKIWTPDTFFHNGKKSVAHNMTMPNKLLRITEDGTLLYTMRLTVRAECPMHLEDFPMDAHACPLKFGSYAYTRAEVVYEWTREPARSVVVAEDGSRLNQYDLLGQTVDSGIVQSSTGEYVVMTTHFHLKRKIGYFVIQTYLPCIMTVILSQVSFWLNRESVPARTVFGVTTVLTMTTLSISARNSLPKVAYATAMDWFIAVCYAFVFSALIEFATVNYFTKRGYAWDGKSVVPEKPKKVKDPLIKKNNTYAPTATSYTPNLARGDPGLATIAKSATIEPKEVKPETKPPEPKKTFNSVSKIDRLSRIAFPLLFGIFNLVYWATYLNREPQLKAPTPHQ

[4] = tested on: α5GABAA receptor cell-surface expression; assay: Receptor cell-surface ELISA assay in cultured hippocampal neurons; assay type: cell-based, mouse; conditions: peptide 2 μM, 24 hrs, astrocyte-conditioned medium (etomidate 1 μM, 1 hr)
Method: This experimental cell culture model was used to test the effects of the inhibitory peptide on an overexpression of α5GABAA receptors on the surface of neurons. The medium from astrocytes that were treated with etomidate (1 μM, 1 hr) (conditioned medium) was collected, and the medium bathing cultured hippocampal neurons was exchanged with the astrocyte-conditioned medium. The cells were incubated at 37° C., 5% CO2 with the peptide or scramble peptide (2 μM). After 24 hrs incubation, the cells were used for receptor cell-surface ELISA assay. The cells were fixed in 4% paraformaldehyde for 20 min in the presence (permeabilized) or absence (non-permeabilized) of 1% Triton-X100. The cells, after 3 times wash with cold PBS and blocked with 5% bovine album solution, were incubated with a α5 antibody (Santa Cruz Biotech Inc.) at 4° C. overnight. The next day the cells were thoroughly washed with PBS and incubated with the horseradish peroxidase (HRP)-conjugated secondary antibody for 2 hrs. With HRP substrate added and color developed in the medium, the results were determined with microplate reader.
The cell surface expression of α5 subunit was presented as the ratio of the colorimetric reading under non-permeabilized conditions to those permeabilized conditions. Consistent with the previous report, etomidate increases α5GABAA receptor surface expression. This increase was blocked by the specific peptide, but not the scramble peptide (FIG. 6A).
For astrocyte culture, cortical astrocytes were isolated from embryonic day 18 (E18) mouse embryos. Cells were allowed to grow to confluence in MEM and 10% fetal bovine serum (FBS; Life Technologies, Grand Island, New York) for 14 d. Cells were then enzymatically dissociated with trypsin-EDTA (0.05%; Life Technologies, Grand Island, New York), and passaged three times to obtain a nearly pure astrocytic culture. Astrocytes were then plated at a density of 25,000 cells per dish. […]

mice = conditions: mouse, in vivo
Method: In the present study, mice were handled two times a day, 5 min each before start of behavioral experiments. Object recognition was assessed in a circle opaque chamber with the diameter of 38.5 cm in a regular lit room. Each mouse was habituated to the chamber for 5 min since day 3. During the training phase, the mouse was allowed to explore two identical objects for 5 min. The mouse was then returned to its home cage for a retention period of 1 h. The mouse was reintroduced to the training context and presented with one familiar object and one novel object for 5 min. Movement and interaction with the objects was recorded with a video camera that was mounted above the chamber. The exploratory behavior and mouse activity was analyzed blindly by a person with a good training and the software EthoVision, XT v11.5 provided by the Noldus Information Tech Inc., (Leesburg VA, USA). Exploratory behavior was defined as sniffing, licking, or touching the object while facing the object. Memory was assessed by measuring the novelty preference ratio (i.e., the ratio of time spent exploring the novel object to the time spent exploring both objects). […] Total interaction time with both objects was compared between groups to determine whether the treatments affected locomotor activity or exploration during the testing phase.
Specifically, we studied whether the use of the inhibitory peptide with etomidate prevented etomidate-induced memory deficits (attributed to the increase in cell surface expression of α5GABAA receptors). […] Saline and 35% propylene glycol were used as the vehicle control. NOR was conducted the next day.

How did the “effects on α2 subunit containing GABAA receptors (gephyrin interaction)” value [1] turn out when NYFTKRGWAWDGKKAL [inhibitory peptide] was run?
Its value is “did not have any effects”.

What about the “baseline α5GABAA receptors expression, total or cell surface level” value [2] of the same sequence?
The value was “does not alter”.

And the “effects on α1 subunit containing GABAA receptors (gephyrin interaction)” value [3]?
The value was “did not have any effects”.

What about the “etomidate-induced increase in α5GABAA receptor surface expression” value [4] of the same sequence?
The value was “blocked”.

And the “Body Angle State Bent” value (mice)?
Its value is 6 ± 3 s.

What about the “Body Angle State Bent (%)” value (mice) of the same sequence?
The value was 2%.

And the “Body Angle State Straight” value (mice)?
The value was 269 ± 45 s.

What about the “Body Angle State Straight (%)” value (mice) of the same sequence?
The value was 98%.

What about the “Body Elongation State Contracted” value (mice) of the same sequence?
The value was 48 ± 66 s.

And the “Body Elongation State Contracted (%)” value (mice)?
The value was 16%.

And the “Body Elongation State Normal” value (mice)?
Its value is 252 ± 66 s.

And the “Body Elongation State Normal (%)” value (mice)?
Its value is 84%.

What about the “Body Elongation State Stretched” value (mice) of the same sequence?
The value was 0 s.

What about the “Rotation Frequency” value (mice) of the same sequence?
The value was 5.5 ± 1.7.
